# Tested on: BRAF V600E CRC xenograft model HT29
# Experiment: In vivo antitumor efficacy, HT29 BRAF V600E CRC xenograft model (Example 4, 14 day)
# Details: HT29 in female nude mice; compound A 75 mg/kg, dabrafenib 30 mg/kg, trametinib 0.3 mg/kg QD PO, cetuximab 20 mg/kg 2QW IP
# Description: HT29 xenografts was established by direct subcutaneous (sc) implantation of 2×10^6 cells into the right axillary region of 6-7 week old female nude mice.
# Animals were weighed at dosing day(s) and dose was body weight adjusted, dosing volume was 10 ml/kg. Tumor dimensions and body weights were collected at the time of randomization and twice weekly thereafter for the study duration.
# Percent treatment/control (T/C) values were calculated using the following formulae:
# % Regression=100×ΔT/T0 if ΔT<0;
# where: T=mean tumor volume of the drug-treated group on the final day of the study; ΔT=mean tumor volume of the drug-treated group on the final day of the study—mean tumor volume of the drug-treated group on initial day of dosing; T0=mean tumor volume of the drug-treated group on the day of cohort; C=mean tumor volume of the control group on the final day of the study; and ΔC=mean tumor volume of the control group on the final day of the study—mean tumor volume of the control group on initial day of dosing.
# All data were expressed as mean±standard error of the mean (SEM). Delta tumor volume and percent body weight changes were used for statistical analysis. Between group comparisons were carried out using the One way ANOVA followed by a post hoc Tukey test. For all statistical evaluations, the level of significance was set at p<0.05. Significance compared to the untreated control group is reported unless otherwise stated.
row,SMILES,T/C % or Reg % at day 39 post implantation [%]
1,"CNC[C@@H](NC(=O)c1ccc(-c2nc([C@H]3CC[C@H](O)[C@@H](F)C3)cnc2N)cc1F)c1cc(F)cc(Br)c1 [compound A, 4-(3-amino-6-((1S,3S,4S)-3-fluoro-4-hydroxycyclohexyl)pyrazin-2-yl)-N—((S)-1-(3-bromo-5-fluorophenyl)-2-(methylamino)ethyl)-2-fluorobenzamide]",53.8
2,"CC(C)(C)c1nc(-c2cccc(NS(=O)(=O)c3c(F)cccc3F)c2F)c(-c2ccnc(N)n2)s1 [dabrafenib, N-(3-(5-(2-aminopyrimidin-4-yl)-2-(tert-butyl)thiazol-4-yl)-2-fluorophenyl)-2,6-difluorobenzenesulfonamide]",58.8
3,"CC(=O)Nc1cccc(-n2c(=O)n(C3CC3)c(=O)c3c(Nc4ccc(I)cc4F)n(C)c(=O)c(C)c32)c1 [trametinib, N-(3-(3-cyclopropyl-5-((2-fluoro-4-iodophenyl)amino)-6,8-dimethyl-2,4,7-trioxo-3,4,6,7-tetrahydropyrido[4,3-d]pyrimidin-1(2H)-yl)phenyl)acetamide]",47.7

# From patent publication US20210121460A1, “A TRIPLE PHARMACEUTICAL COMBINATION COMPRISING DABRAFENIB, TRAMETINIB AND AN ERK INHIBITOR” (NOVARTIS AG, priority 2018, published 2021)
